We go through 87 molecules from ChEMBL document CHEMBL1157539, “Thousands of chemical starting points for antimalarial lead identification” (Nature, 2010).

In this experiment the test system is Plasmodium falciparum. Put plainly: GSK_TCMDC: Inhibition of Plasmodium falciparum 3D7 in whole erythrocytes, using parasite LDH activity as an index of growth. The class given is functional, organism-based. Conditions: Plasmodium falciparum, 3D7.
On to `Nc1cc(/C=C/c2ccc([N+](=O)[O-])o2)nc2ccccc12`, for which the XC50 amounted to 367 nM.

As for `c1ccc(-c2nc(NCCCn3ccnc3)cc(-c3ccncc3)n2)cc1`, the XC50 was determined as 167 nM.

Turning to `O=C(Cn1c(CCc2cccc(F)c2F)nc(=O)c2cccnc21)N(Cc1ccc(-c2ccc(C(F)(F)F)cc2)cc1)C1CCN(C2CCSCC2)CC1`, the XC50 was determined as 230 nM.

For `CCN(CC)CCN(Cc1ccc(-c2ccc(C(F)(F)F)cc2)cc1)C(=O)Cn1c(CCc2c(F)cccc2F)nc(=O)c2ccccc21`, the XC50 was found to be 637 nM.

As to `CC(C)(C)NCCN(Cc1ccc(-c2ccc(C(F)(F)F)cc2)cc1)C(=O)Cn1c(SCc2ccc(F)cc2)nc(=O)c2c1CCC2`, the XC50 was determined as 860 nM.

`O=C(/C=C/c1ccc(Cl)c(Cl)c1)NCCCCCN1CCC(n2c(=O)[nH]c3ccccc32)CC1` gave an XC50 of 869 nM.

`COc1ccc(-c2cnc(NCc3ccccc3)nc2)cc1CNC1CCN(C)CC1`: the XC50 was 782 nM.

As for `COc1ccccc1C(C)NCC(=O)Nc1cccc(C(=O)Nc2cccc(C(F)(F)F)c2)c1` (configuration not stated), the XC50 came to 1530 nM.

As for `CCc1cc2c(N)nc(N)nc2nc1-c1ccccc1`, the XC50 was found to be 946 nM.

Molecule `Oc1c(Br)cc2oc3c(c2c1CNCc1ccccc1)CCCC3` showed an XC50 of 961 nM.

In the case of `C#CCCC(=O)Nc1cccc(-c2cccc(-c3nc4cc(C(F)(F)F)ccc4[nH]3)c2)c1`, the XC50 was found to be 805 nM.

The molecule `COc1cc2nc(N3CCC(CNC(=O)c4ccc(-c5ccc(C(=O)N(C)C)cc5)c(OCCO)c4)CC3)nc(N)c2cc1OC` had an XC50 of 730 nM.

`Cc1cc(=NN=Cc2cccc(F)c2)c2cccc(C)c2[nH]1` showed an XC50 of 770 nM.

As to `CN1CCCCC1CCc1cc(C(=O)Nc2ccc(-c3ccc(O)cc3)cc2)ccc1O` (configuration not stated), the XC50 is 1110 nM.

In the case of `Fc1ccc2[nH]c3c(NCCN4CCCCC4)ncnc3c2c1`, the XC50 was found to be 834 nM.

The molecule `Cc1ccnc2nc(C(=O)Nc3cc(Cl)ccc3N3CCOCC3)nn12` came in with an XC50 of 1240 nM.

`Cc1cc(NC(=O)NC(=N)N)ccc1Cl` yielded an XC50 of 698 nM.

`CC(C)Oc1ccc2c(c1)OC(c1ccccc1)(C(F)(F)F)NC2=O` (configuration not stated) gave an XC50 of 136 nM.

With `Cc1[nH]c(C)c(-c2csc3ccccc23)c(=O)c1Cl`, the XC50 came out at 1020 nM.

In turn, `COc1c(C2CCN(CCCCNC(=O)c3ccc(-c4ccc(NC(=O)C(F)(F)F)cc4)cc3)CC2)ccc2c1CCCC2` gave an XC50 of 1000 nM.

`CCN(CCCN1CCCCC1)c1cc(C)nc(Nc2cccc3c2CCCC3)n1`: the XC50 stood at 1030 nM.

As to `COC(=O)c1cccc(CNCc2ccc(-c3ccc(-c4nc5cccc(C)c5[nH]4)cc3)cc2)c1`, the XC50 worked out at 283 nM.

`CC(=O)Nc1ccc(S(=O)(=O)Nc2ccc(Nc3nc(C)cc(N(C)C)n3)cc2)cc1` gave an XC50 of 1160 nM.

Molecule `O=C(Nc1ccc2oc(-c3ccc(Br)cc3)nc2c1)c1ccc([N+](=O)[O-])o1` returned an XC50 of 968 nM.

For the molecule `NC1CCN(CCc2ccc(NS(=O)(=O)c3cccc4ccccc34)cc2)CC1`, the XC50 was 1700 nM.

In turn, `O=c1cc(NCCCNCc2ccc(C(F)(F)F)cc2F)[nH]c2ccccc12` had an XC50 of 956 nM.

`CC1CN(CC(O)Cn2c3ccc(Br)cc3c3cc(Br)ccc32)CC(C)O1` (configuration not stated) came in with an XC50 of 776 nM.

Turning to `COc1cccc(NC(=O)CSc2nc(-c3ccccc3Cl)ns2)c1`, the XC50 was found to be 814 nM.

With `COc1ccc(CNCc2ccsc2)cc1-c1ccc(S(=O)(=O)NCCN2CCCC2)s1`, the XC50 amounted to 766 nM.

As to `CNCCN(C)C(=O)Oc1c(Br)c(C)nc(C)c1-c1ccc(Oc2ccc(OC(F)(F)F)cc2)cc1`, the XC50 was found to be 109 nM.

As for `CN(C)CCNCc1nc(-c2ccc3c(Nc4ccc(Oc5ccccc5)cc4)ccnc3c2)cs1`, the XC50 amounted to 736 nM.

Molecule `COc1cc2nc(N3CCC(CNC(=O)c4ccc(-c5cccc(C#N)c5)cc4)CC3)nc(N)c2cc1OC` showed an XC50 of 139 nM.

On to `CS(=O)(=O)c1ccc(CCNCc2ccc(-c3cccc(-c4nc5ccccc5[nH]4)c3)cc2)cc1`, for which the XC50 is 194 nM.

`CN1CCCC(CN2CCN(Cc3ccc(-c4ccc(-c5nc6ccccc6[nH]5)cc4)cc3)CC2)C1` (configuration not stated) showed an XC50 of 141 nM.

`COc1ccc(-c2cccc(NC(=O)c3cccc(C#N)c3)c2)cc1CN1CCC(O)CC1` had an XC50 of 990 nM.

Turning to `Cc1cc([N+](=O)[O-])ccc1N1CCN(CCCCNC(=O)c2ccc(NC(=O)c3ccc(Cl)cc3)cc2)CC1`, the XC50 worked out at 887 nM.

For the molecule `CC(C)c1ccc(NC(=O)c2ccc(C(=O)NC3CCN(CC4CCCCC4)CC3)cc2)cc1`, the XC50 worked out at 645 nM.

`CCN(CC)/C(=N/C(=N)Nc1ccc(Cl)cc1)NCCCCCCCCN/C(=N\C(=N)Nc1ccc(Cl)cc1)N(CC)CC` came in with an XC50 of 403 nM.

The molecule `CNC(=O)C1Cc2c([nH]c3ccc(Br)cc23)C2(CCN(CCc3ccccc3)CC2)N1` (configuration not stated) showed an XC50 of 919 nM.

As for `O=C(Nc1cccc(-c2ccc(CN3CCCC3)cc2)c1)c1cccc(F)c1`, the XC50 was determined as 783 nM.

The molecule `CCCCN(CCCC)CCNC(=O)c1cc(OC(F)(F)F)ccc1O` returned an XC50 of 920 nM.

Consider `CS(=O)(=O)Cc1cccc(Nc2ncc(Cl)c(Nc3cccnc3C(N)=O)n2)c1`, for which the XC50 worked out at 168 nM.

As for `CC(C)(C)c1ccc(NC(=O)c2ccc(CN3CCCN(Cc4ccsc4)CC3)cc2)cc1`, the XC50 was 716 nM.

With `Cc1ccc(CC(C)NCC(O)c2cccc(C(F)(F)F)c2)cc1` (configuration not stated), the XC50 was 981 nM.

Regarding `O=C(Nc1cccc(C(F)(F)F)c1)Nc1ccc(Cl)c(Cl)c1`, the XC50 stood at 735 nM.

For the molecule `Cc1csc(-c2nonc2NC(=O)COc2ccccc2C(C)C)n1`, the XC50 was 551 nM.

On to `Cc1cccc2nc(-c3cccc(-c4ccc(C(=O)NCc5nccn5C)cc4)c3)[nH]c12`, for which the XC50 amounted to 1320 nM.

`c1ccc(Oc2cccc(Nc3ccnc4ccccc34)c2)cc1` displayed an XC50 of 1110 nM.

In turn, `O=C(Nc1ccc(-c2cccc(-c3nc4cc(C(F)(F)F)ccc4[nH]3)c2)cc1)c1ccc(=O)[nH]n1` gave an XC50 of 1070 nM.

The molecule `CCCCNCc1cc(Cl)c2ccccc2c1O` registered an XC50 of 457 nM.

Regarding `CN(C)CC(O)COc1ccc(Nc2ncc([N+](=O)[O-])c(Nc3ccccc3O)n2)cc1` (configuration not stated), the XC50 was 762 nM.

`CC(=O)c1cccc(Nc2nc3ccc(OCc4cc(Cl)cc(Cl)c4)c(C#N)c3[nH]2)c1`: the XC50 was found to be 869 nM.

With `O=C(Nc1cccc(CN2CCCN(Cc3cccc(O)c3)CC2)c1)c1ccc2ccccc2c1`, the XC50 was 786 nM.

Regarding `ON=C1CCc2cc(-c3[nH]c(-c4cccc(OCCNCc5ccc(F)cc5)c4)nc3-c3ccncc3)ccc21`, the XC50 was 890 nM.

`Oc1ccc(CCNc2nc(N/N=C/c3ccc(Cl)cc3)nc(N3CCNCC3)n2)cc1`: the XC50 was found to be 583 nM.

Take `COc1ccc(CNCc2cccc(-c3cccc(-c4nc5cc(C(F)(F)F)ccc5[nH]4)c3)c2)cc1`: the XC50 was 196 nM.

Take `COc1ccc2ncc(F)c([C@H](O)CN3CCC(NCc4ccc5c(c4)NC(=O)CS5)CC3)c2c1`: the XC50 stood at 185 nM.

Molecule `CNC(=O)/C=C/c1cc(NC(=O)Nc2cc(C)nc3c(F)cccc23)ccc1OC` registered an XC50 of 908 nM.

For `Cc1ccc2[nH]c(C)cc(=NN=Cc3ccccc3Cl)c2c1`, the XC50 was 752 nM.

Take `O=C(CCC1CCCCC1)NCCNc1cccc2ccccc12`: the XC50 was 831 nM.

`CN(c1ccc(NC(=O)c2cccc(F)c2)cc1)C1CCCN(Cc2cccc(O)c2)C1` (configuration not stated) showed an XC50 of 1300 nM.

Consider `CC(C)Nc1cc(C(=O)N[C@@H](Cc2ccccc2)[C@H](O)CNC2CCCCC2)cc(N2CCCCS2(=O)=O)c1`, for which the XC50 is 103 nM.

Take `CCOc1cc2c(cc1OCC)C(c1ccc(O)c(Cl)c1)NCC2` (configuration not stated): the XC50 is 790 nM.

On to `CN(C)Cc1cc2c(O)c(Cc3ccccc3)ccc2o1`, for which the XC50 was 1090 nM.

Turning to `CN1CCC(c2c[nH]c3ccc(NC(=O)Nc4ccc(-c5ccncc5)c(Cl)c4Cl)cc23)CC1`, the XC50 is 696 nM.

On to `CCCN1CCN(Cc2ccc(-c3ccc(-c4nc5ccccc5[nH]4)s3)cc2)CC1`, for which the XC50 was found to be 611 nM.

In turn, `CCCCCCCCn1c2c(c(=N)c3c1CCC3)CCCC2` registered an XC50 of 109 nM.

`O=C(NCCCCN1CCC(c2ccc3c(c2OCCN2CCCC2)CCCC3)CC1)c1ccc(-c2ccc(C(F)(F)F)cc2)cc1` yielded an XC50 of 447 nM.

For the molecule `CN1CCN(c2cc3c(cc2Br)CCN3C(=O)Nc2ccc(-c3cnc4ccccc4c3)cc2)CC1`, the XC50 came to 576 nM.

As to `Cc1cc(NCCc2ccccc2)nc(NC(=N)Nc2ccccc2Cl)n1`, the XC50 was determined as 789 nM.

For `Cc1cccc2nc(-c3ccc(-c4cccc(NC(=O)Nc5ccsc5)c4)s3)[nH]c12`, the XC50 was 542 nM.

Regarding `O=C(NCCCCN1CCC(c2ccc3c(c2OC(=O)c2ccc(NC(=O)c4ccc(Cl)cc4)cc2)CCCC3)CC1)c1ccc(NC(=O)c2ccc(Cl)cc2)cc1`, the XC50 was 203 nM.

`COc1ccc2ncc(Cl)c([C@H](O)CN3CCC(NCc4cc5c(cn4)OCCO5)CC3)c2c1` came in with an XC50 of 116 nM.

`CCC(C)OC(=O)C1=C(C)NC2=C(C(=O)CC(c3ccc(OC)c(OC)c3)C2)C1c1cccc(O)c1` (configuration not stated) showed an XC50 of 193 nM.

Take `COc1cccc(OC)c1C(=O)N1CCC2(CC1)C(=O)N(CC(=O)NC1CCCCC1)CN2c1ccccc1`: the XC50 is 953 nM.

On to `CNc1ccc(CNCc2ccc(-c3ccc(-c4nc5cc(F)ccc5[nH]4)cc3)cc2)cc1`, for which the XC50 was 210 nM.

As to `CCCCCC(C)N/C(=N/c1ccccc1Br)Nc1ccc(C#N)cc1O` (configuration not stated), the XC50 is 751 nM.

For `CN(C)c1ccc(C(c2ccc(N(C)C)cc2)c2cc([N+](=O)[O-])ccc2Cl)cc1`, the XC50 amounted to 911 nM.

Regarding `COc1cc2nc(NCCC(C)C)n3nc(-c4ccccc4)nc3c2cc1OC`, the XC50 amounted to 417 nM.

The molecule `COc1cccc(C(=O)NC(C=Cc2ccccc2)c2cc(Cl)c3cccnc3c2O)c1` (configuration not stated) displayed an XC50 of 859 nM.

For `CC(C)(C)c1ccc(S(=O)(=O)Nc2ccccc2Cn2nc(N3CCNCC3)ccc2=O)cc1`, the XC50 was found to be 846 nM.

For the molecule `CCN1CCCC(CNC(=O)/C(=C/C=C/c2cc3cc(Cl)c(Cl)cc3[nH]2)OC)C1` (configuration not stated), the XC50 was 888 nM.

`Nc1c(-c2ccc(C(=O)NCCNCc3ccccc3)cc2)cnn1-c1ccc(C(F)(F)F)cc1` yielded an XC50 of 1160 nM.

As for `CC(C)N(C(=O)CSc1nc2cc(Cl)ccc2c(=O)n1Cc1ccccc1)C(C)C`, the XC50 is 167 nM.

Turning to `O=C(Nc1ccc(Br)cc1)N(CCN1CCOCC1)CC(O)COCc1ccc(F)cc1` (configuration not stated), the XC50 amounted to 1040 nM.

`CC(C)Cc1nc(N2CCOCC2)c2nnn(Cc3ccccc3)c2n1`: the XC50 came to 508 nM.

`O=C(Cc1ccc(F)cc1)NC1CCN(c2ccnc3cc(Cl)ccc23)C1` (configuration not stated) came in with an XC50 of 484 nM.
